Laboratory results reported in patent publication EP0149818A2, “1,4-Naphthoquinone derivatives, process for their preparation and their use as medicines” (Troponwerke GmbH & Co. KG, priority 1983, dated 1985).

Columns and labels:
[1] = test system: durch Carrageenan ausgelöste ödem der Rattenpfote; assay: Carrageenan-induced rat paw oedema (method of Winter et al., modified: pure λ-carrageenan as 0,25 % suspension in saline); assay type: in vivo, Ratte; conditions: po, p.o, λ-carrageenan 0,25 % suspension, read-out: DE50 (the source's name)
Description: Die Verbindungen der allgemeinen Formel I hemmen das durch Carrageenan ausgelöste ödem der Rattenpfote stark. Zum Nachweis diente die Methode von Winter et al., Proc. Soc. Exp. Bil. Med. 111, 544 (1962), mit der Abwandlung, daß zur ödemauslösung reines λ-carrageenan als 0,25 % Suspension in physiologischer Kochsalzlösung verwendet wurde. Beispielhaft wurde in diesem Testmodell für Verb. 1 die DE50 = 0,5 mg/kg p.o ermittelt.

[2] = test system: Metabolisierung der Arachidonsäure über den Cyclooxygenaseweg; assay: Inhibition of arachidonic acid metabolism via the cyclooxygenase pathway (method of Brune et al.); assay type: cell-based
From the text: Wie die meisten NSAID (non steroidal antiinflammatory drugs) hemmen auch die meisten Verbindungen der allgemeinen Formel I die Metabolisierung der Arachidonsäure über den Cyclooxygenaseweg mehr oder weniger stark (Methode von Brune et al., Naunyn-Schmiedeberg's Arch. Pharmacol. 315, 269 (1981)). Die IC50 für Verb. 1 in diesem Test beträgt 2.6 x 10-^6 Mol/l.

[3] = test system: durch das chemotaktisch wirkende FMLP stimulierte Aggregation von PMN-Leukozyten; assay: Inhibition of FMLP-stimulated aggregation of PMN leukocytes (method of Cunningham et al.); assay type: cell-based; conditions: Leukocyte
From the text: Darüber hinaus konnte für eine Reihe von Verbindungen der allgemeinen Formel I nachgewiesen werden, daß sie die durch das chemotaktisch wirkende FMLP stimulierte Aggregation von PMN-Leukozyten hemmen und dadurch Anteil an der entzündungshemmenden Wirkung haben (Methode von Cunningham et al., Agents & Actions 11, 583 (1981)). Für Verb. 1 ist die IC50 in diesem Test 3.7 x 10^-5 Mol/l.

Structure (SMILES): O=C1C(O)=C(NCc2ccccc2)C(=O)c2ccccc21 [Verb. 1, 2-Benzylamino-3-hydroxy-naphthochinon-1,4]
- ED50 [1]: 0.5 mg/kg
- IC50 [2]: 2.6 µM
- IC50 [3]: 37 µM
